According to ChEMBL document CHEMBL1201862, “PubChem BioAssay data set” (2004):
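Test compounds were applied to cells in 96-well plates for 48 hours at 5 doses. At the GI50, growth is halved.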 Calls of active or inactive are those of the source. Cut-off read from the data, not from the text of the source: active = GI50 up to about 1.1 µM and inactive = higher.

Key:
Experiment in all cases: NCI-60 cell line screen, 48 h
TK-10 = tested on: TK-10
SF-268 = tested on: SF-268
NCI/ADR-RES = tested on: NCI/ADR-RES
MDA-N = tested on: MDA-N
HOP-62 = tested on: HOP-62
DU-145 = tested on: DU-145
A498 = tested on: A498
786-0 = tested on: 786-0
IGROV-1 = tested on: IGROV-1
NCI-H226 = tested on: NCI-H226
OVCAR-5 = tested on: OVCAR-5
OVCAR-3 = tested on: OVCAR-3
CCRF-CEM = tested on: CCRF-CEM
U-251 = tested on: U-251
HT-29 = tested on: HT-29
SR = tested on: SR
SK-MEL-28 = tested on: SK-MEL-28
RXF 393 = tested on: RXF 393
T47D = tested on: T47D
SF-539 = tested on: SF-539

Measured: GI50

COc1ccc(C2c3cc4c(cc3OC(N3CCOCC3)C2C)OCO4)c(OC)c1 (stereo not given)
inactive: TK-10 7.78 µM | SF-268 6.95 µM | NCI/ADR-RES 2.71 µM | MDA-N 1.64 µM | HOP-62 5.06 µM | DU-145 9.89 µM | A498 4.68 µM | 786-0 4.63 µM | IGROV-1 7.59 µM | NCI-H226 3.72 µM | OVCAR-5 19.1 µM | OVCAR-3 3.48 µM | CCRF-CEM 3.5 µM | U-251 4.09 µM | HT-29 3.48 µM | SR 4.21 µM | SK-MEL-28 8.49 µM | RXF 393 2.94 µM | T47D 5.83 µM | SF-539 3.05 µM

O=Cc1[nH]c(=O)[nH]c(=O)c1CCl
inactive: TK-10 > 100 µM | SF-268 > 59.3 µM | NCI/ADR-RES > 100 µM | MDA-N > 100 µM | HOP-62 > 100 µM | DU-145 > 100 µM | A498 > 100 µM | 786-0 74.8 µM | IGROV-1 > 100 µM | NCI-H226 > 100 µM | OVCAR-5 > 100 µM | OVCAR-3 > 100 µM | CCRF-CEM > 52.7 µM | U-251 > 61 µM | HT-29 > 88.9 µM | SR 30.6 µM | SK-MEL-28 > 100 µM | RXF 393 71.6 µM | T47D > 100 µM | SF-539 > 63.2 µM

O=C1/C(=N/O)Cc2c(Br)ccc(Br)c21
inactive: TK-10 48.4 µM | SF-268 35.2 µM | NCI/ADR-RES 35.7 µM | MDA-N 48.3 µM | HOP-62 > 100 µM | DU-145 71.6 µM | A498 68.1 µM | 786-0 74 µM | IGROV-1 40 µM | NCI-H226 68.1 µM | OVCAR-5 > 100 µM | OVCAR-3 22.3 µM | CCRF-CEM 27.8 µM | U-251 39.6 µM | HT-29 > 100 µM | SR 28.4 µM | SK-MEL-28 60.3 µM | RXF 393 99.3 µM | T47D 51.3 µM | SF-539 > 100 µM

CC(=O)c1ccc2c(c1)CC1(C2)Cc2ccc3c(c2C1=O)CCC3 (stereo not given)
inactive: TK-10 24 µM | SF-268 31.2 µM | NCI/ADR-RES 20.1 µM | MDA-N 21.8 µM | HOP-62 38.9 µM | DU-145 31.3 µM | A498 39.3 µM | 786-0 17.6 µM | IGROV-1 55.2 µM | NCI-H226 19 µM | OVCAR-5 36.8 µM | OVCAR-3 31 µM | CCRF-CEM 24.3 µM | U-251 34.8 µM | HT-29 15.2 µM | SR 65.5 µM | SK-MEL-28 20.3 µM | RXF 393 24.7 µM | T47D 12.5 µM | SF-539 27.7 µM

CC(C)OC(=O)[C@@H]1OC(C)(C)O[C@H]1C(=O)OC(C)C
inactive: TK-10 > 100 µM | SF-268 > 100 µM | NCI/ADR-RES > 100 µM | MDA-N > 100 µM | HOP-62 > 100 µM | DU-145 > 100 µM | A498 > 100 µM | 786-0 > 100 µM | IGROV-1 > 100 µM | NCI-H226 > 100 µM | OVCAR-5 > 100 µM | CCRF-CEM > 100 µM | U-251 > 100 µM | HT-29 > 100 µM | SR > 100 µM | RXF 393 > 100 µM | T47D > 100 µM | SF-539 > 100 µM

Cn1c2ccccc2c2ccc3c(c21)C(=O)c1ccc2c4ccccc4n(C)c2c1C3=O
inactive: TK-10 > 100 µM | SF-268 > 100 µM | NCI/ADR-RES > 100 µM | MDA-N > 100 µM | HOP-62 > 100 µM | DU-145 > 100 µM | A498 > 100 µM | 786-0 99.1 µM | IGROV-1 > 100 µM | NCI-H226 > 100 µM | OVCAR-5 > 100 µM | OVCAR-3 > 65 µM | CCRF-CEM > 100 µM | U-251 > 100 µM | HT-29 > 100 µM | SR > 100 µM | SK-MEL-28 > 100 µM | RXF 393 > 100 µM | T47D > 100 µM | SF-539 > 100 µM

O=C1/C(=N/c2ccccc2)Oc2cc(O)ccc21
inactive: TK-10 > 100 µM | SF-268 > 100 µM | NCI/ADR-RES > 100 µM | MDA-N > 100 µM | HOP-62 > 100 µM | DU-145 > 100 µM | A498 > 100 µM | 786-0 > 100 µM | IGROV-1 > 100 µM | NCI-H226 > 100 µM | OVCAR-5 > 100 µM | OVCAR-3 > 100 µM | CCRF-CEM > 100 µM | U-251 > 100 µM | HT-29 > 100 µM | SR > 100 µM | SK-MEL-28 > 100 µM | RXF 393 > 100 µM | T47D > 100 µM | SF-539 > 100 µM

CC1(CNCc2ccccc2)CC(CCc2ccccc2)N(C(=O)c2ccc([N+](=O)[O-])cc2)C1Cc1ccc(O)cc1 (stereo not given)
inactive: TK-10 16.4 µM | SF-268 13.4 µM | NCI/ADR-RES 14.7 µM | MDA-N 12.3 µM | HOP-62 15.8 µM | DU-145 14.7 µM | A498 12.9 µM | 786-0 11.8 µM | IGROV-1 15 µM | NCI-H226 9.93 µM | OVCAR-5 17.6 µM | OVCAR-3 12.1 µM | CCRF-CEM 23.2 µM | U-251 12.3 µM | HT-29 5.65 µM | SR 6.75 µM | SK-MEL-28 31 µM | RXF 393 5.04 µM | T47D 5.32 µM | SF-539 17.1 µM

Nc1ncnc2c1ncn2[C@@H]1C[C@H](NO)[C@@H](O)[C@H]1O
inactive: TK-10 > 100 µM | SF-268 > 100 µM | NCI/ADR-RES 68.5 µM | MDA-N > 100 µM | HOP-62 > 100 µM | DU-145 > 100 µM | A498 > 100 µM | 786-0 > 100 µM | IGROV-1 > 100 µM | NCI-H226 > 100 µM | OVCAR-5 > 100 µM | OVCAR-3 > 100 µM | CCRF-CEM 22.3 µM | U-251 > 100 µM | SR 3.55 µM | SK-MEL-28 > 100 µM | RXF 393 > 100 µM | T47D > 100 µM | SF-539 33.5 µM

Oc1ccccc1/C=N/c1nc2cc3sc(/N=C/c4ccccc4O)nc3cc2s1
inactive: TK-10 > 86.9 µM | SF-268 50.9 µM | NCI/ADR-RES > 100 µM | MDA-N > 100 µM | HOP-62 > 80.4 µM | DU-145 > 48.6 µM | A498 26.3 µM | 786-0 > 81.1 µM | IGROV-1 60 µM | NCI-H226 26.4 µM | OVCAR-5 > 64.7 µM | OVCAR-3 > 100 µM | CCRF-CEM 4.74 µM | U-251 > 70.5 µM | HT-29 26.2 µM | SR 2.63 µM | SK-MEL-28 > 100 µM | RXF 393 > 32.7 µM | T47D > 61.1 µM | SF-539 > 85.5 µM

COc1cc(NCc2ccc3n2-c2ccccc2OC3)cc(OC)c1OC
inactive: TK-10 32.5 µM | SF-268 46.5 µM | NCI/ADR-RES 4.25 µM | MDA-N 21.1 µM | HOP-62 43.5 µM | DU-145 72.1 µM | A498 13.5 µM | 786-0 47.1 µM | IGROV-1 14 µM | NCI-H226 28.8 µM | OVCAR-5 46.5 µM | OVCAR-3 28.6 µM | CCRF-CEM 12.6 µM | U-251 18.4 µM | HT-29 35.5 µM | SR 11.8 µM | SK-MEL-28 38.3 µM | RXF 393 24.6 µM | T47D 37.2 µM

CSc1nc(C#N)c(/N=C\N(C)C)n1C
inactive: TK-10 > 100 µM | SF-268 > 100 µM | NCI/ADR-RES > 100 µM | MDA-N > 100 µM | HOP-62 > 100 µM | DU-145 > 100 µM | A498 > 100 µM | 786-0 > 100 µM | IGROV-1 > 100 µM | NCI-H226 > 100 µM | OVCAR-5 > 100 µM | OVCAR-3 > 100 µM | CCRF-CEM > 100 µM | U-251 > 100 µM | SR > 100 µM | SK-MEL-28 > 100 µM | RXF 393 > 100 µM | T47D > 100 µM | SF-539 > 100 µM

CCOC(=O)c1sc(N/N=C2\NC(=O)/C(=C/c3ccc([N+](=O)[O-])cc3)S2)nc1C
inactive: TK-10 35.3 µM | SF-268 27.5 µM | NCI/ADR-RES 23.9 µM | MDA-N 25.9 µM | HOP-62 17.2 µM | DU-145 16.8 µM | A498 26.1 µM | 786-0 16.7 µM | IGROV-1 14 µM | NCI-H226 18.7 µM | OVCAR-5 22.6 µM | OVCAR-3 14.5 µM | CCRF-CEM 15.1 µM | U-251 26.1 µM | HT-29 25.2 µM | SR 6.65 µM | SK-MEL-28 32.1 µM | RXF 393 26.8 µM | T47D 15.1 µM | SF-539 18.7 µM

CC(=O)OCC1=C(C)C(OC(=O)C(OC(C)=O)[C@@H](NC(=O)c2ccccc2)c2ccccc2)CCC1(C)C (stereo not given in full)
inactive: TK-10 > 100 µM | SF-268 > 100 µM | NCI/ADR-RES > 100 µM | MDA-N > 100 µM | HOP-62 > 100 µM | DU-145 > 100 µM | A498 > 100 µM | 786-0 > 100 µM | IGROV-1 > 100 µM | NCI-H226 > 100 µM | OVCAR-5 > 100 µM | OVCAR-3 > 100 µM | CCRF-CEM > 100 µM | U-251 > 100 µM | HT-29 > 100 µM | SR > 100 µM | SK-MEL-28 > 100 µM | RXF 393 > 100 µM | T47D > 100 µM | SF-539 > 100 µM
